Test results as given in US20080085893A1, “MATRIX METALLOPROTEASE INHIBITORS” (priority 2006, published 2008).
“And” between values parts separate entries of the source, which are not always exact repeats. Equal entries are not always repeated.

Columns and labels:
Type in all cases: biochemical
[1] = biological target: T1, human MMP-9 (amino acids 107-446) (Homo sapiens, UniProt P14780); experiment: MMP dose response assay for determining IC50, MMP-9; conditions: recombinant enzyme, fluorescent-quench substrate 100 nM; read-out: MMP-9
T1 construct: human MMP-9 (amino acids 107-446); made in house
Summary of the method: (§1)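 Recombinant enzymes in 50 mM HEPES pH 7.4, 10 mM CaCl2, 0.05% Brij-35, at empirically set levels keeping activity linear, preincubated 1 h at room temperature with compound in triplicate. Fluorescence-quench peptide substrate (Eu/QSY7) added at 100 nM final. Background-subtracted signal expressed as percent of DMSO control for IC50.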

[2] = biological target: T2, human MMP-3 (amino acids 100-265) (Homo sapiens, UniProt P08254); experiment: MMP dose response assay for determining IC50, MMP-3; conditions: recombinant enzyme, fluorescent-quench substrate 100 nM
T2 construct: human MMP-3 (amino acids 100-265); made in house
Experimental: (§2) MMP Dose Response Assay for Determining IC50
(§3) The following method was used for determining IC50 values of different inhibitor compounds against multiple MMP enzymes. Frozen stocks of recombinantly produced MMPs were prepared in assay buffer (50 mM HEPES pH 7.4, 10 mM CaCl2, 0.05% Brij-35). The following domains were used to produce catalytically active version of the indicated MMP enzymes, human MMP-1 (amino acids 100-262), human MMP-2 (amino acids 1-660), human MMP-3 (amino acids 100-265), human MMP-9 (amino acids 107-446), human MMP-13 (amino acids 103-268), and rat MMP-9 (amino acids 108-446). Enzyme concentrations in the assay were determined empirically and set such that proteolytic activity was maintained in a linear range over the time-course of the experiment. Diluted enzymes were mixed with various test compounds that had been pre-diluted into assay buffer to establish concentration curves ranging from 10^−5 M to 10^−12 M. Compounds were diluted into assay buffer that contained an appropriate concentration of DMSO to maintain this at a constant in all wells. Each concentration for each test compound was tested in triplicate. MMP enzymes were equilibrated with compounds for 1 hour at room temperature, then a fluorescent-quench substrate (Acetyl-Cys(Eu)-Pro-Leu-Gly-Leu-Lys-(QSY7)-Ala-Arg-amide) was added to a final concentration of 100 nM. Following a 15 minute room temperature incubation, the assay plate was read on an EnVision plate reader using the following parameters: excitation wavelength 340 nM, emission wavelength 615 nM, number of flashes 100, delay before reading 300 milliseconds. Data was analyzed by first calculating average background value from wells that contained only substrate, and this value was subtracted from the entire plate. The 100%, or maximum value, was determined by averaging control wells that contained enzyme, substrate and DMSO. For each well, the percent of control was calculated by dividing the well value by the average DMSO value obtained above.
(§4) Additionally, compounds 27, 3, 65, 66, and 97 were tested in vitro for MMP-3, MMP-9 (rat), and MMP-13 antagonism.

[3] = biological target: T3, human MMP-13 (amino acids 103-268) (Homo sapiens, UniProt P45452); experiment: MMP dose response assay for determining IC50, MMP-13; conditions: recombinant enzyme, fluorescent-quench substrate 100 nM
T3 construct: human MMP-13 (amino acids 103-268); made in house
Experimental: as §2, §3, §4

[4] = biological target: T4, human MMP-1 (amino acids 100-262) (Homo sapiens, UniProt P03956); experiment: MMP dose response assay for determining IC50, MMP-1; conditions: recombinant catalytic domain, fluorescent-quench substrate 100 nM
T4 construct: human MMP-1 (amino acids 100-262); made in house
T4 sequence (P03956 100-262): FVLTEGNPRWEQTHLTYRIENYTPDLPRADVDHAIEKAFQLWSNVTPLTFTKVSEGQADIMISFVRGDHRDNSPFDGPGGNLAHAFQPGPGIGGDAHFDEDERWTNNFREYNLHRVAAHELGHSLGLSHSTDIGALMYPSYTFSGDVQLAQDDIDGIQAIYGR
Summary of the method: as §1

[5] = biological target: T5, human MMP-2 (amino acids 1-660) (Homo sapiens, UniProt P08253); experiment: MMP dose response assay for determining IC50, MMP-2; conditions: recombinant enzyme, fluorescent-quench substrate 100 nM; read-out: MMP-2
T5 construct: human MMP-2 (amino acids 1-660); made in house
T5 sequence (P08253 110-660): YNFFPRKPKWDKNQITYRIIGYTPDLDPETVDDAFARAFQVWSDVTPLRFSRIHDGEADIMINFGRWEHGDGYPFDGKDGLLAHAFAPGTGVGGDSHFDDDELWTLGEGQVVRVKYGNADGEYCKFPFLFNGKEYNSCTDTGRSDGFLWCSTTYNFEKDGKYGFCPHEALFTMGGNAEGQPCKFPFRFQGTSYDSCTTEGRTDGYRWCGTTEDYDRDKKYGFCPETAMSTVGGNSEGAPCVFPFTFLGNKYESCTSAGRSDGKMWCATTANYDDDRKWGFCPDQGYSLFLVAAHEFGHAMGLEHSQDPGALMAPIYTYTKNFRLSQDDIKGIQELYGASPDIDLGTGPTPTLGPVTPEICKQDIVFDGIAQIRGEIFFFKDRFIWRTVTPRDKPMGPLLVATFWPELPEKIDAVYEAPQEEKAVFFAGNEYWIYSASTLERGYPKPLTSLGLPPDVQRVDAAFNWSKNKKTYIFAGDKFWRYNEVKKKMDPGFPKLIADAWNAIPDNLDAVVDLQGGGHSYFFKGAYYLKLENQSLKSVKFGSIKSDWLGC
Summary of the method: as §1

[6] = biological target: T6, rat MMP-9 (amino acids 108-446) (Rattus norvegicus, UniProt P50282); experiment: MMP dose response assay for determining IC50, rat MMP-9; conditions: rat enzyme
T6 construct: rat MMP-9 (amino acids 108-446); made in house
Experimental: as §2
as §3, with “Diluted enzymes were mixed with various test compounds that had been pre-diluted into assay buffer to establish concentration curves ranging from 10^−5 M to 10^−12 M. Compounds were diluted into assay buffer that contained an appropriate concentration of DMSO to maintain this at a constant in all wells. Each concentration for each test compound was tested in triplicate. MMP enzymes were equilibrated with compounds for 1 hour at room temperature, then a fluorescent-quench substrate (Acetyl-Cys(Eu)-Pro-Leu-Gly-Leu-Lys-(QSY7)-Ala-Arg-amide) was added to a final concentration of 100 nM.” left out, “For each well, the percent of control was calculated by dividing the well value by the average DMSO value obtained above.” left out

T1 sequence (P14780 107-446): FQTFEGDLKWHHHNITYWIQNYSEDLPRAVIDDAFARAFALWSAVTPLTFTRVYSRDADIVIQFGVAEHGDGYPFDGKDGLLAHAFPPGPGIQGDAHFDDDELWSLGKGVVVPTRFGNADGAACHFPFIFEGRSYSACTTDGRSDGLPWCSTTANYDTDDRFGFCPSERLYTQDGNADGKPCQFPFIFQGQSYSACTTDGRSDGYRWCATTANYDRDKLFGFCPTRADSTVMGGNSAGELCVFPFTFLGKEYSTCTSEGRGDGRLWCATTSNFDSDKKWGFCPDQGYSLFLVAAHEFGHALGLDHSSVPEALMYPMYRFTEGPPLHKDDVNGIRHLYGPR
T2 sequence (P08254 100-265): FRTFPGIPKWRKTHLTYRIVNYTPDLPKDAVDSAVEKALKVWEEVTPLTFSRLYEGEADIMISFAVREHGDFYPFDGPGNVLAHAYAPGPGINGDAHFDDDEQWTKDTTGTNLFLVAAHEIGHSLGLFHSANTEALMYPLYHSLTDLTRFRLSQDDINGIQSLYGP
T6 sequence (P50282 108-446): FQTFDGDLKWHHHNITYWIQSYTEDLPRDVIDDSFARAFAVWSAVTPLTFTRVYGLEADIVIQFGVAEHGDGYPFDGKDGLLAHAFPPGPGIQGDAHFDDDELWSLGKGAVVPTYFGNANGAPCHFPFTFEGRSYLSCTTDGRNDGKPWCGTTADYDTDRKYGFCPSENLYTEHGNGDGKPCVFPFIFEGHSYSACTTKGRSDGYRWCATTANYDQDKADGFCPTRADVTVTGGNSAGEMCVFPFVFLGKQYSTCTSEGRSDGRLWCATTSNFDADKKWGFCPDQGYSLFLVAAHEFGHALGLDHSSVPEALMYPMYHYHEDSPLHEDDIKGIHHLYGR

SMILES: CS(=O)(=O)N(C[C@@H](C(=O)NO)N1CCOCC1)c1ccc(Oc2ccc(C(F)(F)F)cc2)cc1 [Example 3, N-Hydroxy (2S)-2-(morpholin-4-yl)-3-{N-[4-(4-trifluoromethylphenoxy)phenyl],N-methanesulfonylamino}propionamide]
- IC50 [1]: 4.06 nM and 3.53 nM and 2.37 nM and 2.76 nM and 7.64 nM and 2.89 nM and 2.08 nM and 2.79 nM and 18.4 nM and 7.46 nM
- IC50 [2]: 63.7 nM and 105 nM
- IC50 [3]: 30.5 nM and 56.1 nM

SMILES: Cc1ccc(Oc2ccc(N(C[C@@H](C(=O)NO)N3CCOCC3)S(C)(=O)=O)cc2)cc1 [Example 27, N-Hydroxy (2S)-3-{N-[4-(4-methylphenoxy)phenyl],N-methanesulfonylamino}-2-(morpholin-4-yl)propionamide]
- IC50 [4]: > 10000 nM
- IC50 [5]: 3.21 nM and 4.98 nM and 4.19 nM and 10.7 nM and 8.28 nM
- IC50 [1]: 1.52 nM and 2.56 nM and 0.93 nM and 4.05 nM and 2.49 nM
- IC50 [2]: 136 nM
- IC50 [6]: 25.8 nM
- IC50 [3]: 3.53 nM

SMILES: Cc1ccc(Oc2ccc(N(C[C@@H](C(=O)NO)N3CCC(O)(c4ccc(Br)cc4)CC3)S(C)(=O)=O)cc2)cc1 [Example 65, N-Hydroxy (2S)-2-[4-(4-bromophenyl)-4-hydroxypiperidin-1-yl]-3-{N-[4-(4-methylphenoxy)phenyl],N-methanesulfonylamino}propionamide]
- IC50 [4]: > 10000 nM
- IC50 [5]: 0.37 nM
- IC50 [1]: 0.65 nM
- IC50 [2]: 492 nM
- IC50 [3]: 411 nM

SMILES: Cc1ccc(Oc2ccc(N(C[C@H](NCCc3c[nH]c4ccccc34)C(=O)NO)S(C)(=O)=O)cc2)cc1 [Example 66]
- IC50 [4]: > 10000 nM
- IC50 [5]: 41.2 nM
- IC50 [1]: 2.88 nM
- IC50 [2]: 822 nM
- IC50 [3]: 847 nM

SMILES: CC(C)N(C)[C@@H](CN(c1ccc(Oc2ccc(C(F)(F)F)cc2)cc1)S(C)(=O)=O)C(=O)NO [Example 97, N-Hydroxy (2S)-2-[N-methyl,N-(2-prolyl)amino]-3-{N-[4-(4-trifluoromethylphenoxy)phenyl],N-methanesulfonylamino}propionamide]
- IC50 [5]: 17.4 nM and 29.9 nM
- IC50 [1]: 5.48 nM and 12.2 nM
- IC50 [2]: 218 nM
- IC50 [6]: 175 nM
- IC50 [3]: 12.4 nM
